From PMC11603362, “Cannabidiol inhibits transient receptor potential canonical 4 and modulates excitability of pyramidal neurons in mPFC” (Frontiers in Pharmacology, 2024)

Biological target: T1, TRPC4 (Homo sapiens, UniProt Q9UBN4)
T1 construct: human TRPC4a channel
T1 sequence (Q9UBN4 1-977): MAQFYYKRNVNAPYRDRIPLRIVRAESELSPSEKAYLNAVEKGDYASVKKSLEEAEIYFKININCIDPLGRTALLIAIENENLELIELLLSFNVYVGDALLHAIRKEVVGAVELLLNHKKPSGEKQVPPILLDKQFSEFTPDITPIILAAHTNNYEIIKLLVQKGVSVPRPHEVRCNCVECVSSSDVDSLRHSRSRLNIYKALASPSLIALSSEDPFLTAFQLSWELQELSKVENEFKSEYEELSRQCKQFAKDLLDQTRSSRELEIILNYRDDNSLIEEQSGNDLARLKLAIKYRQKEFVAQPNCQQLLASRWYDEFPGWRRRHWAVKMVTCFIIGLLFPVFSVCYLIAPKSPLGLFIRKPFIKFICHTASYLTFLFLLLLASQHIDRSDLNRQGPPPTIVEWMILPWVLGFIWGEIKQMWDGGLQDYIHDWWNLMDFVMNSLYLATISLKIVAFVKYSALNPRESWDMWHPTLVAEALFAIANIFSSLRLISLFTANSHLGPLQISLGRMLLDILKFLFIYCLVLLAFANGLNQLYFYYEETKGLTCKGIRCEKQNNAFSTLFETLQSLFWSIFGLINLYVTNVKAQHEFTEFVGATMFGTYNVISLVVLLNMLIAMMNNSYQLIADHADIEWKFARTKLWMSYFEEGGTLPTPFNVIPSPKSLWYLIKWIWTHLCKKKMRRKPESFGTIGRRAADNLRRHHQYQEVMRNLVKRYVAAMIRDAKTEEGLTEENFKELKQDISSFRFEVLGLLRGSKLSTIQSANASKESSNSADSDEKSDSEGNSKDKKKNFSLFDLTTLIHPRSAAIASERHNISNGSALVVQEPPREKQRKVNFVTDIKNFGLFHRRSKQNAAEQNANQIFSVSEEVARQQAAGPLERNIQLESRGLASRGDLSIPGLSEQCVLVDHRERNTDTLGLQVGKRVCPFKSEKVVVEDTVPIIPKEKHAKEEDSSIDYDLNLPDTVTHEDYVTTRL
Test: whole-cell patch clamp in HEK293-TRPC4 cells (EA-evoked current); also Ca2+ influx assay
Format: cell-based

`C=C(C)[C@@H]1CCC(C)=C[C@H]1c1c(O)cc(CCCCC)cc1O` [CBD, Cannabidiol] was tested, and the IC50 was 1520 ± 600 nM.
